Where two headings read alike, the source gives them in different places.
Molecular target: T1, Human Cav3.1 calcium channel (Homo sapiens, UniProt O43497)
T1 construct: expressed in transfected cells; host or cells: HEK-293 natClytin/TASK1+Cav3.1 cell line
Experiment: Human Cav3.1 calcium channel patch clamp assay (SyncroPatch 384PE; single point and IC50, voltage dependent block)
Assay type: cell-based
Settings: for % Inhibition (Single Point Data): patch clamp
Summary of the method: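 Automated whole-cell patch clamp at room temperature, cells held at −120 mV; 100 ms step to −20 mV (resting block), then 1600 ms at −65 mV and a second −20 mV step (voltage-dependent block), every 15 s. Peak currents averaged over last 3 sweeps; % inhibition relative to nickel-sensitive current.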

[1] = Testing Conc 1.25, HEK-293 natClytin/TASK1+Cav3.1 cell line
[2] = voltage dependent block (VDB), HEK-293 natClytin/TASK1+Cav3.1 cell line, read-out: Cav3.1 IC50

T1 sequence (O43497 whole entry): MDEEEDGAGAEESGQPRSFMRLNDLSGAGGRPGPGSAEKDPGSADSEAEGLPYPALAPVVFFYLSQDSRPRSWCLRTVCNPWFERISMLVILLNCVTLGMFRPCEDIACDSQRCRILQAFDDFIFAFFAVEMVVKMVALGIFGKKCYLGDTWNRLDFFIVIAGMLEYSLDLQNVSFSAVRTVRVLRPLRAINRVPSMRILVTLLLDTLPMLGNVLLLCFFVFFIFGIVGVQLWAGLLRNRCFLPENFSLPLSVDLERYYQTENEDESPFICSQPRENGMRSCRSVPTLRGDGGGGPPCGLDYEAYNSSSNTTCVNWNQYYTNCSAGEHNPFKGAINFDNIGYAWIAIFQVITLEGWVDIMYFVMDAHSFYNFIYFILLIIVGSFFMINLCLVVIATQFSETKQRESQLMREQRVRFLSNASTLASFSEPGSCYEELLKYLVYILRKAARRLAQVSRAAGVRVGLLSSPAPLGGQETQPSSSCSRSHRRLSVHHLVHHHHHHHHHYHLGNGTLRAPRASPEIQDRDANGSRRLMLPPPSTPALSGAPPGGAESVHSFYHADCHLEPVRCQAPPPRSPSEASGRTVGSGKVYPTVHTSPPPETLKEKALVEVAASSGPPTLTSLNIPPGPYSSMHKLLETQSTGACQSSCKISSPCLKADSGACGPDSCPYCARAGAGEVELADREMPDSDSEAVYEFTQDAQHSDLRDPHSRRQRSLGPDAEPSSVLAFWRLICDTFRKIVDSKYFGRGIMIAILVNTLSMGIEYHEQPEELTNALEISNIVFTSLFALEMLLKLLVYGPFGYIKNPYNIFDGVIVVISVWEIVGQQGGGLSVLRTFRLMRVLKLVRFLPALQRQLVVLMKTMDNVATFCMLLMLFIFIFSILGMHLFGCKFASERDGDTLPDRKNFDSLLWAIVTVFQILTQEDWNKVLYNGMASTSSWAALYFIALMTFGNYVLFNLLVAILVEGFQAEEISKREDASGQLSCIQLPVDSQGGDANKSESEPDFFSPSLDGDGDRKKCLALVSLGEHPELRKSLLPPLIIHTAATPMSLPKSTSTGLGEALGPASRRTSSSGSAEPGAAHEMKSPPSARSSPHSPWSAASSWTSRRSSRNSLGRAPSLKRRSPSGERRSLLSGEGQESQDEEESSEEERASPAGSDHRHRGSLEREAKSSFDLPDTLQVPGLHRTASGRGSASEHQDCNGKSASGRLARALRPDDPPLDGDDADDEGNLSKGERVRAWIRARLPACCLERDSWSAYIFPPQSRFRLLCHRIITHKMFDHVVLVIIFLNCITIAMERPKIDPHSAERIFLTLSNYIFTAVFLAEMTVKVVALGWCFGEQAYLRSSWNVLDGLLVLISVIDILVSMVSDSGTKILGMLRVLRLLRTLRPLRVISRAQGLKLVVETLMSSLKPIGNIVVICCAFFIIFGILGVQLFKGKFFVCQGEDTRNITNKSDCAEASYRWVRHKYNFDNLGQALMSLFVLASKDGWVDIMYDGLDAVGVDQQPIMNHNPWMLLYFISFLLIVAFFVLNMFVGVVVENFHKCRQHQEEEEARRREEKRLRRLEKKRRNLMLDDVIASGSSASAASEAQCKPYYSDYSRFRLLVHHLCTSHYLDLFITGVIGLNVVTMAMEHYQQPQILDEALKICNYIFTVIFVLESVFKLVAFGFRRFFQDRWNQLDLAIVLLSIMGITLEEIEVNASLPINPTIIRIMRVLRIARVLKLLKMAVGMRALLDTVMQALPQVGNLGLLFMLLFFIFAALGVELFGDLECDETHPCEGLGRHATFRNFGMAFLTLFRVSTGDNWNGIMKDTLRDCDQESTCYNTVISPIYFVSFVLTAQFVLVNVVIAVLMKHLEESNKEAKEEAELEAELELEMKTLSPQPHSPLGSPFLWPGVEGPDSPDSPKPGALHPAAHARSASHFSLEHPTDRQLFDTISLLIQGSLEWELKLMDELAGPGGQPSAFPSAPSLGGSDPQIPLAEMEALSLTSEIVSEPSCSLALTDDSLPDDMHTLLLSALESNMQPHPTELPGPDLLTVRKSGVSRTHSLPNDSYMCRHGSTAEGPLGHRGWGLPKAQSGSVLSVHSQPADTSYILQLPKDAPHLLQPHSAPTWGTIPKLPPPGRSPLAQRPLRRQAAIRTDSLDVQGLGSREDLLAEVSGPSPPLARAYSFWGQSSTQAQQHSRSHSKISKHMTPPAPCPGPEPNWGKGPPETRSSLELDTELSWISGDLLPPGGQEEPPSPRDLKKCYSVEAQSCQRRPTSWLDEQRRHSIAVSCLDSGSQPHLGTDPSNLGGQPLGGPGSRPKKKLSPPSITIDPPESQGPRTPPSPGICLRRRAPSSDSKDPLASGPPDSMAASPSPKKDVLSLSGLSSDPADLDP

IC50 [2] [nM]	% Inhibition (Single Point Data) (Testing Conc 1, HEK-293 natClytin/TASK1+Cav3.1 cell line) [%]	SMILES	% Inhibition (Single Point Data) [1] [%]	IC50 [nM]
< 78.2	–	O=C(CN1C[C@@H]2C[C@H]1CN2CC(=O)NC1(C(F)(F)F)CC1)Nc1cc(F)c(F)c(Cl)c1 [Compound 347]	–	–
759	–	O=C(CN1C[C@@H]2C[C@H]1CN2CC(=O)NC1(C(F)(F)F)CC1)NC12CC3CC(CC(C3)C1)C2 [Compound 280]	61.038	–
–	–	Cc1cc(Cl)cc(NC(=O)CN2CC3CC(C2)N3CC(=O)NC2(C(F)(F)F)CC2)c1 [Compound 336]	87.863	–
167	–	CC(C)(C)NC(=O)CN1CC2CCC1CN2Cc1nc2c(Cl)cc(F)cc2[nH]1 (stereo not drawn) [Compound 63]	93.839	–
–	–	Cc1ccc(F)c2[nH]c(CN3CC4CC(C3)N4CC(=O)NC(C)(C)C(F)(F)F)nc12 [Compound 144]	98.286	74.5
–	–	CC(C)(C)NC(=O)CN1C2CC1CN(CC(=O)Nc1cccc(OC(F)F)c1)C2 [Compound 12]	81.341	–
–	–	O=C(CN1C2CCC1CN(Cc1nc3c(Cl)cc(F)cc3[nH]1)C2)N1CCCCC1 [Compound 78]	97.937	–
–	–	CC(C)(C)NC(=O)CN1C2CCC1CN(Cc1nc3c(Cl)cc(C#N)cc3[nH]1)C2 [Compound 191]	97.531	–
888	–	CC(C)(C)NC(=O)CN1C[C@H]2CC[C@@H]1CN2CC(=O)Nc1ccc(F)c(Cl)c1 [Compound 269]	62.186	–
289	–	Cc1cc(Cl)cc(NC(=O)CN2C[C@@H]3C[C@H]2CN3CC(=O)NC2(C(F)(F)F)CC2)c1 [Compound 327]	87.352	–
–	–	CC(C)(C)NC(=O)CN1C2CC1CN(Cc1nc3c(Cl)cc(F)cc3[nH]1)C2 [Compound 62, N-(tert-butyl)-2-(3-((4-chloro-6-fluoro-1H-benzo[d]imidazol-2-yl)methyl)-3,6-diazabicyclo[3.1.1]heptan-6-yl)acetamide]	102.05	< 78.2
1080	–	CC1(C)CN(C(=O)CN2C[C@@H]3C[C@H]2CN3CC(=O)NC23CC4CC(CC(C4)C2)C3)C1 [Compound 317]	48.399	–
297	–	O=C(CN1CC2CC1CN2CC(=O)NC1(C(F)(F)F)CC1)Nc1cc(F)cc(OC(F)F)c1 (stereo not drawn) [Compound 56]	70.217	–
–	–	COc1ccc(Cl)c2nc(CN3CC4CC(C3)N4CC(=O)NC(C)(C)C(F)(F)F)[nH]c12 [Compound 136]	100.03	–
–	–	CC1(NC(=O)CN2C3CC2CN(Cc2nc4c(Cl)ccc(F)c4[nH]2)C3)COC1 [Compound 174]	75.268	–
–	42.822	CC(C)(C)NC(=O)CN1CCN(CC(=O)Nc2cc(F)cc(Cl)c2)C(=O)C1 [Compound 35]	–	–
–	–	O=C(CN1CC2CC(C1)N2CC(F)(F)C1CCCCC1)Nc1cc(F)cc(Cl)c1 [Compound 226]	39.507	–
–	–	Cc1cc(F)cc(NC(=O)CN2CC3CC(C2)N3CC(=O)NC(C)(C)C)c1 [Compound 215]	100	–

IC50 [2] [nM]	% Inhibition (Single Point Data) (Testing Conc 1, HEK-293 natClytin/TASK1+Cav3.1 cell line) [%]	SMILES	% Inhibition (Single Point Data) [1] [%]	IC50 [nM]
2240	–	CC(C)Cc1cc(CNC(=O)CN2CCN(CC(=O)NC(C)(C)C)CC2)nn1-c1ccccc1 [Compound 1, 2-[4-[2-(tert-butylamino)-2-oxo-ethyl]piperazin-1-yl]-N-[(5-isobutyl-1-phenyl-pyrazol-3-yl)methyl]acetamide]	27.978	–
1270	–	CC(C)(C)NC(=O)CN1C[C@@H]2C[C@H]1CN2CC(=O)NCC12CC3CC(CC(C3)C1)C2 [Compound 285]	45.897	–
–	–	O=C(CN1C[C@@H]2C[C@H]1CN2CC(=O)NC1(C(F)(F)F)CC1)Nc1ccc(F)c(OC(F)F)c1 [Compound 330]	96.893	–
140	–	Cc1cc(Cl)cc(NC(=O)CN2C[C@@H]3C[C@H]2CN3CC(=O)NC(C)(C)C)c1 [Compound 283]	94.657	–
827	–	CC(C)(C)NC(=O)CN1C[C@H]2C[C@@H]1CN2CC(=O)Nc1ccc(F)c(Cl)c1 [Compound 26]	57.68	–
1960	–	CC(C)(C)NC(=O)CN1C[C@H]2COC[C@@H](C1)[C@H]2CC(=O)Nc1cc(F)cc(Cl)c1 [Compound 371]	–	–
–	–	CC(C)(NC(=O)CN1C2CCC1CN(Cc1nc3c(Cl)cc(F)cc3[nH]1)C2)C(F)(F)F [Compound 76]	100.39	–
89.3	–	CC(C)(C)NC(=O)CN1CC2CC1CN2CC(=O)Nc1cc(F)cc(OC(F)F)c1 (stereo not drawn) [Compound 231]	95.51	–
–	–	O=C(CN1CC2CC(C1)N2CC(=O)NC1(C(F)(F)F)CC1)Nc1cc(F)cc(Cl)c1 [Compound 170]	96.908	–
–	–	CC(C)(C)CCN1C2CCC1CN(Cc1nc3c(Cl)cc(F)cc3[nH]1)C2 [Compound 77]	100.45	–
–	–	CC(C)(C)NC(=O)CN1C2CCC1CN(Cc1nc3c(C(F)F)cccc3[nH]1)C2 [Compound 202]	100.89	–
395	–	Fc1cc(Cl)c2nc(CN3CCN(Cc4cc5ccccc5[nH]4)CC3)[nH]c2c1 [Compound 72]	81.94	–
–	–	O=C(CN1CC2CC(C1)N2CCNC(=O)C1(C(F)(F)F)CC1)Nc1ccc(F)c(Cl)c1 [Compound 16]	94.311	–
306	–	COc1cccc(CN2CCN(Cc3nc4c(Cl)cc(F)cc4[nH]3)CC2)c1 [Compound 66]	88.018	–
–	–	CC(C)(C)CCCN1C2CC1CN(Cc1nc3c(Cl)cc(F)cc3[nH]1)C2 [Compound 107]	101.43	< 78.2
–	–	CC(C)(C)NC(=O)CN1C[C@@H]2C[C@H]1CN2CC(=O)Nc1ccc(F)c(Cl)c1 [Compound 23]	91.472	–
–	–	CC(C)(C)NC(=O)CN1C[C@@H]2C[C@H]1CN2CC(=O)NC12CC3CC(CC(C3)C1)C2 [Compound 259]	91.279	–

SMILES	IC50 [2] [nM]	% Inhibition (Single Point Data) (Testing Conc 1, HEK-293 natClytin/TASK1+Cav3.1 cell line) [%]	% Inhibition (Single Point Data) [1] [%]	IC50 [nM]
CC(C)(C)NC(=O)CN1C2CC1CN(CC(=O)Nc1cc(Cl)ccc1F)C2 [Compound 14]	1710	–	39.34	–
O=C(CN1CC2CC(C1)N2CC1(O)CCC(F)(F)CC1)NC12CC3CC(CC(C3)C1)C2 [Compound 278]	1210	–	45.568	–
CC(C)(C)NC(=O)CN1C2CCC1CN(Cc1c[nH]c(-c3ccccc3)n1)C2 [Compound 197]	1540	–	45.013	–
CC(C)(NC(=O)CN1C2CC1CN(CC(=O)Nc1cc(F)cc(OC(F)F)c1)C2)C(F)(F)F [Compound 224]	159	–	83.389	–
CC(C)(C)NC(=O)CN1C2CC1CN(C(=O)NC13CC4CC(CC(C4)C1)C3)C2 [Compound 303]	8850	–	23.993	–
CC1(C)CC(CN2C3CC2CN(CC(=O)NC24CC5CC(CC(C5)C2)C4)C3)CCO1 (stereo not drawn) [Compound 299]	932	–	43.196	–
N#CC1(CN2C3CC2CN(CC(=O)Nc2cc(F)cc(Cl)c2)C3)CCCCC1 [Compound 51]	1440	–	29.781	–
Fc1cc(Cl)c2nc(CN3CC4CC(C3)N4CCOC3CCOCC3)[nH]c2c1 [Compound 146]	1280	–	41.657	–
COc1ccc(F)c2[nH]c(CN3CC4CC(C3)N4CC(=O)NC(C)(C)C)nc12 [Compound 175]	147	–	89.419	–
